These compounds were tested against T1, human A2a receptor (Homo sapiens, UniProt P29274) (assay: Competition binding assay using Scintillation Proximity technology (A2a activity)). Conditions: membranes from HEK293 cells expressing the human A2a receptor; 0.5 nM tritiated ligand; Cheng-Prusoff.
T1 construct: purchased Perkin-Elmer RBHA2AM400UA; host or cells: HEK293 cells (membranes)
Experimental: Binding affinities of compounds of the invention for the human A2a receptor were determined in a competition binding assay using Scintillation Proximity technology. Thus, […] from HEK293 cells expressing the human A2a receptor were incubated with a compound of the invention at concentrations ranging from 3000 nM to 0.15 nM in a reaction mixture containing also 0.5 nM of a tritiated form of 5-amino-7-[2-phenethyl]-2-(furan-2-yl)-7H-pyrazolo[4,3-e][1,2,4]triazolo[1,5-c]pyrimidine (the tritiated compound) and 100 μg of wheat germ agglutin-coated yttrium silicate SPA beads for one hour at room temperature with agitation. The beads were then allowed to settle to the bottom of the wells for 1 hr, after which the membrane-associated radioactivity was determined by scintillation counting in a TopCount microplate reader. Ki values were determined using the Cheng-Prusoff equation.
HEK293 cells expressing the human, rat, dog or monkey adenosine 2a receptor (Purchased from Perkin-Elmer # RBHA2AM400UA).
The Tritiated compound was prepared according to published methods.
Wheat germ agglutinin-coated yttrium silicate SPA beads (GE Healthcare # RPNQ0023). Dilute to 25 mg/ml in assay buffer.
Assay Buffer was prepared using Dulbecco's calcium and magnesium free phosphate buffered saline+10 mM MgCl2
Adenosine deaminase from calf intestine, 10 mg/2 ml (Roche #10 102 105 001).
A2a antagonist standard (9-chloro-1-(2-furanyl)-[1,2,4]triazolo1,5-c]quinazolin-5-amine from Tocris Bioscience)
Make eight 1:3 serial dilutions in 100% DMSO from a 3 mM compound stock
Transfer 50 nl of compound into a 384-well OptiPlate (Perkin Elmer).
Typically, final concentrations of compound used in the assay ranged from 3000 nM to 0.152 nM.
Dilute a solution of the Tritiated compound to 1.25 nM in assay buffer. This is a 2.5× solution. The final concentration in the assay is 0.5 nM. Calculate the concentration by counting two 5 μl aliquots.
Use 0.25 ug of membrane/well. Dilute membranes to 9.7 μg/ml in assay buffer. Treat with 20 ug/ml adenosine deaminase (ADA) for 15 minutes at room temperature to degrade endogenous adenosine.
Use 100 μg/well wheat germ agglutinin-coated yttrium silicate SPA beads.
Mix ADA-treated membranes and SPA beads together for 30 min prior to assay.
To the Perkin-Elmer Optiplate-384 containing the compound titration add 20 μl of 2.5× solution of the Tritiated compound and 30 μl of the membrane-bead mixture. Incubate for one hour at room temperature with agitation.
Include total binding (assay buffer+1% DMSO) and non-specific binding (CGS15943, 1 μM) wells.
Allow the beads to settle for one hour.
A curve fitting program (i.e., Prism, Activity Base, Chemcart) is used to determine the EC50. The Ki value is calculated using the Cheng-Prusoff equation. K i=EC50/(1+(radioligand concentration/Kd))

T1 sequence (P29274 whole entry): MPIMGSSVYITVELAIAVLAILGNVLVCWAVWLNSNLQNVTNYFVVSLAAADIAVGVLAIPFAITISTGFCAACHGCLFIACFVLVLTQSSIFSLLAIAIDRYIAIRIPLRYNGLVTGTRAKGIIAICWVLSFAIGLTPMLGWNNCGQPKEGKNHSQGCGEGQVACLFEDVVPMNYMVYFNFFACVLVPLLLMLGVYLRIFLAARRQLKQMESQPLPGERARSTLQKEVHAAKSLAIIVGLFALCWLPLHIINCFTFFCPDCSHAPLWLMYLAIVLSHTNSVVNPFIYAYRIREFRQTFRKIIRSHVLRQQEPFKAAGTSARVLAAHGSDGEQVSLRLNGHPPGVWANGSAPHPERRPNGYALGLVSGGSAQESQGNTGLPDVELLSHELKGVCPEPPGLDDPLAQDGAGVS

| SMILES | Ki |
| --- | --- |
| COc1cccc2c1nc(N)n1nc(Cc3ccc(N(C)C)cc3)cc21 [Ex-11, 2-(4-(dimethylamino)benzyl)-7-methoxypyrazolo[1,5-c]quinazolin-5-amine] | 61 nM |
| COc1cccc2c1nc(N)n1nc(Cc3ccccc3N3CCNCC3)cc21 [Ex-19, 7-methoxy-2-(2-(piperazin-1-yl)benzyl)pyrazolo[1,5-c]quinazolin-5-amine] | 67 nM |
| COc1cccc2c1nc(N)n1nc(Cc3ccccc3CN3CCC(C)(O)CC3)cc21 [Ex-27, 1-(2-((5-amino-7-methoxypyrazolo[1,5-c]quinazolin-2-yl)methyl)benzyl)-4-methylpiperidin-4-ol] | 18 nM |
| COc1cccc2c1nc(N)n1nc(Cc3cccc4cccnc34)cc21 [Ex-9, 7-methoxy-2-(quinolin-8-ylmethyl)pyrazolo[1,5-c]quinazolin-5-amine] | 3 nM |
| COc1cccc2c1nc(N)n1nc(Cc3ccccc3OC(F)(F)F)cc21 [Ex-46, 7-methoxy-2-(2-(trifluoromethoxy)benzyl)pyrazolo[1,5-c]quinazolin-5-amine] | 34 nM |
| COc1cccc2c1nc(N)n1nc(Cc3cccc4ncccc34)cc21 [Ex-15, 7-methoxy-2-(quinolin-5-ylmethyl)pyrazolo[1,5-c]quinazolin-5-amine] | 85 nM |
| COc1cccc2c1nc(N)n1nc(Cc3cccc(F)c3F)cc21 [Ex-40, 2-(2,3-difluorobenzyl)-7-methoxypyrazolo[1,5-c]quinazolin-5-amine] | 6 nM |
| COc1cccc2c1nc(N)n1nc(Cc3ccc(N4CCNCC4)cc3)cc21 [Ex-25, 7-methoxy-2-(4-(piperazin-1-yl)benzyl)pyrazolo[1,5-c]quinazolin-5-amine] | 333 nM |
| COc1cccc2c1nc(N)n1nc(Cc3ccc(N4CCN(C)CC4)cc3)cc21 [Ex-12, 7-methoxy-2-(4-(4-methylpiperazin-1-yl)benzyl)pyrazolo[1,5-c]quinazolin-5-amine] | 316 nM |
| COc1cccc2c1nc(N)n1nc(Cc3ccccc3CN3CC(O)C3)cc21 [Ex-28, 1-(2-((5-amino-7-methoxypyrazolo[1,5-c]quinazolin-2-yl)methyl)benzyl)azetidin-3-ol] | 9 nM |
| COc1cccc2c1nc(N)n1nc(Cc3cccc(C#N)c3)cc21 [Ex-52, 3-((5-amino-7-methoxypyrazolo[1,5-c]quinazolin-2-yl)methyl)benzonitrile] | 33 nM |
| COc1cccc2c1nc(N)n1nc(Cc3ccc(N4CCN(C(=O)OC(C)(C)C)CC4)cc3)cc21 [Ex-24, tert-butyl 4-(4-((5-amino-7-methoxypyrazolo[1,5-c]quinazolin-2-yl)methyl)phenyl)piperazine-1-carboxylate] | 224 nM |
| COc1cccc2c1nc(N)n1nc(Cc3ccccc3OCc3ccccc3)cc21 [Ex-51, 2-(2-(benzyloxy)benzyl)-7-methoxypyrazolo[1,5-c]quinazolin-5-amine] | 128 nM |
| COc1ccc(Cc2cc3c4cccc(OC)c4nc(N)n3n2)cc1 [Ex-33, 7-methoxy-2-(4-methoxybenzyl)pyrazolo[1,5-c]quinazolin-5-amine] | 32 nM |
| COc1cccc2c1nc(N)n1nc(Cc3cnn(C)c3)cc21 [Ex-37, 7-methoxy-2-((1-methyl-1H-pyrazol-4-yl)methyl)pyrazolo[1,5-c]quinazolin-5-amine] | 15 nM |

Now from value to compound:

| Ki | SMILES |
| --- | --- |
| 68 nM | Nc1nc2ccccc2c2cc(Cc3ccnc4ccccc34)nn12 [Ex-95, 2-(quinolin-4-ylmethyl)pyrazolo[1,5-c]quinazolin-5-amine] |
| 49 nM | COc1cccc2c1nc(N)n1nc(Cc3cccc4c3CNC4=O)cc21 [Ex-56, 4-((5-amino-7-methoxypyrazolo[1,5-c]quinazolin-2-yl)methyl)isoindolin-1-one] |
| 11 nM | COc1cccc2c1nc(N)n1nc(C(=O)N3CCN(Cc4ccc(F)cc4)CC3)cc21 [Ex-73, (5-amino-7-methoxypyrazolo[1,5c]-quinazolin-2-yl)(4-(4-fluorobenzyl)-piperazin-1-yl)methanone] |
| 22 nM | COc1cccc2c1nc(N)n1nc(Cc3cccc4ccc(C)nc34)cc21 [Ex-60, 7-methoxy-2-((2-methylquinolin-8-yl)methyl)pyrazolo[1,5-c]quinazolin-5-amine] |
| 7 nM | COc1cccc2c1nc(N)n1nc(C(=O)N(C)Cc3cccc4cccnc34)cc21 [Ex-82, 5-amino-7-methoxy-N-methyl-N-(quinolin-8-ylmethyl)pyrazolo[1,5-c]quinazoline-2-carboxamide] |
| 0.4 nM | COc1cccc2c1nc(N)n1nc(C(=O)NCc3cccc4cccnc34)cc21 [Ex-91, 5-amino-7-methoxy-N-(quinolin-8-ylmethyl)pyrazolo[1,5-c]quinazoline-2-carboxamide] |
| 7 nM | COC(=O)N1CCC2(CCN(C(=O)c3cc4c5cccc(OC)c5nc(N)n4n3)C2)C1 (stereo not drawn) [Ex-88, methyl 7-(5-amino-7-methoxypyrazolo[1,5-c]quinazoline-2-carbonyl)-2,7-diazaspiro[4.4]nonane-2-carboxylate] |
| 50 nM | COc1cccc2c1nc(N)n1nc(C(=O)N3CCC4(CCN(Cc5ccccc5)C4)C3)cc21 (stereo not drawn) [Ex-90, (5-amino-7-methoxypyrazolo[1,5-c]quinazolin-2-yl)(7-benzyl-2,7-diazaspiro[4.4]nonan-2-yl)methanone] |
| 4 nM | COc1cccc2c1nc(N)n1nc(C(=O)N(C)Cc3ccccc3)cc21 [Ex-81, 5-amino-N-benzyl-7-methoxy-N-methylpyrazolo[1,5-c]quinazoline-2-carboxamide] |
| 32 nM | Nc1nc2c(F)cccc2c2cc(C(=O)N3CCN(c4ccccn4)CC3)nn12 [Ex-110, (5-amino-7-fluoropyrazolo[1,5-c]quinazolin-2-yl)(4-(pyridin-2-yl)piperazin-1-yl)methanone] |
| 101 nM | COc1cccc2c1nc(N)n1nc(-c3nc(-c4ccccc4)no3)cc21 [Ex-92, 7-methoxy-2-(3-phenyl-1,2,4-oxadiazol-5-yl)pyrazolo[1,5-c]quinazolin-5-amine] |
| 23 nM | COc1cccc2c1nc(N)n1nc(-c3nnc(NCc4ccc(F)cc4F)o3)cc21 [Ex-103, 5-(5-amino-7-methoxypyrazolo[1,5-c]quinazolin-2-yl)-N-(2,4-difluorobenzyl)-1,3,4-oxadiazol-2-amine] |
| 14 nM | COc1cccc2c1nc(N)n1nc(CN3Cc4cccnc4C3)cc21 [Ex-69, 2-((5,7-dihydro-6H-pyrrolo[3,4-b]pyridin-6-yl)methyl)-7-methoxypyrazolo[1,5-c]quinazolin-5-amine] |
| 21 nM | COc1cccc2c1nc(N)n1nc(Cc3cccc(C#N)c3F)cc21 [Ex-61, 3-((5-amino-7-methoxypyrazolo[1,5-c]quinazolin-2-yl)methyl)-2-fluorobenzonitrile] |
| 21 nM | COc1cccc2c1nc(N)n1nc(Cc3cccc(F)c3C)cc21 [Ex-59, 2-(3-fluoro-2-methylbenzyl)-7-methoxypyrazolo[1,5-c]quinazolin-5-amine] |
| 69 nM | COc1cccc2c1nc(N)n1nc(Cc3cccc(-n4cccn4)c3)cc21 [Ex-58, 2-(3-(1H-pyrazol-1-yl)benzyl)-7-methoxypyrazolo[1,5-c]quinazolin-5-amine] |
| 0.3 nM | COc1cccc2c1nc(N)n1nc(C(=O)N3CCN(c4ccc(F)cc4F)CC3)cc21 [Ex-78, (5-amino-7-methoxypyrazolo[1,5-c]quinazolin-2-yl)(4-(2,4-difluorophenyl)piperazin-1-yl)methanone] |
| 19 nM | COc1cccc2c1nc(N)n1nc(-c3nnc(-c4cccc5cccnc45)o3)cc21 [Ex-100, 7-methoxy-2-(5-(quinolin-8-yl)-1,3,4-oxadiazol-2-yl)pyrazolo[1,5-c]quinazolin-5-amine] |
| 37 nM | COc1cccc2c1nc(N)n1nc(C(=O)N3CCCCC3)cc21 [Ex-72, (5-amino-7-methoxypyrazolo[1,5-c]quinazolin-2-yl)(piperidin-1-yl)methanone] |
| 245 nM | COc1cccc2c1nc(N)n1nc(C(=O)N3CCC4(CCNC4)CC3)cc21 [Ex-84, (5-amino-7-methoxypyrazolo[1,5-c]quinazolin-2-yl)(2,8-diazaspiro[4.5]decan-8-yl)methanone] |

Same assay, conditions: same protocol

| SMILES | Ki |
| --- | --- |
| COc1cccc2c1nc(N)n1nc(C(=O)N3CCN(c4ccccn4)CC3)cc21 [Ex-70, (5-amino-7-methoxypyrazolo[1,5-c]quinazolin-2-yl)(4-(pyridin-2-yl)piperazin-1-yl)methanone] | 7 nM |

Source: US10688082B2, “Aminopyrazine compounds with A2A antagonist properties” (Merck Sharp & Dohme Corp., priority 2015, dated 2020)
